Consider two compounds from US11413283B2, “Topical formulations for delivery of hedgehog inhibitor compounds and use thereof” (PellePharm, Inc., priority 2015, dated 2022).

Data set [1] has as its system Hedgehog (Hh) signaling pathway. As to conditions: Kim and Beachy, Cancer Cell, 17, 388-399, 2010; read-out: IC50 value for itraconazole (half maximal inhibitory concentration); cited from earlier work.
A short description of data set [2]: Saturated solubility of itraconazole in solvents and solvent systems. Format: physicochemical.
Data set [3] can be described thus: Toxicokinetics of patidegib and metabolite IPI-230 in plasma after twice daily dermal application for 13 weeks. Type of data set: in vivo, Gottingen Minipig. As to conditions: for Cmax / AUC(0-t) / Tmax: Gottingen, minipig, plasma, topical or ocular; for Cmax / AUC(0-t): Gottingen Minipig plasma; for AUC(0-t): read-out: Mean Patidegib AUC0-24; for Tmax: dermal, minipig plasma, read-out: Individual Tmax. The protocol: A study was conducted to evaluate the toxicokinetics of patidegib when administered twice daily via dermal application for 13 weeks. As described in Example 11, the formulation identified herein as SS14 was prepared, with patidegib concentrations of 2% and 4%. The formulations, along with a placebo, were applied topically to Gottingen Minipigs® twice daily, and blood samples were collected on study days 1, 14 and 90 for analysis of patidegib and its metabolite, IPI-230.
A study was conducted to determine the toxicokinetics of patidegib and its metabolite, IPI-230, when patidegib was administered twice daily (approximately 8 hours apart) to Gottingen Minipigs® via dermal application for 13 weeks.
The formulation identified herein as SS14 was prepared, with 2% patidegib and with 4% patidegib. A placebo formulation was also prepared that was identical in all respects to SS14 except for the absence of the patidegib. The formulation was applied topically to the animals at patidegib dose levels of 0 mg/kg/day (untreated), 0 mg/kg/day (placebo), 40 mg/kg/day, and 80 mg/kg/day to Groups 1, 2, 3, and 4, respectively. Groups 1 and 3 consisted of four animals/sex/group and Groups 2 and 4 consisted of six animals/sex/group. Doses were administered twice daily (approximately 8 hours apart). Blood samples were collected from all animals, survival permitting, on Days 1, 14 (Group 4 only), and 90 predose and at approximately 2, 4, 6, 8 (just prior to the second daily dose), 10, 12, 14, 16, and 24 hours following the first daily dose. Plasma samples were assayed for patidegib and IPI-230. Only the 2-hour samples from the untreated and placebo groups were analyzed.
Noncompartmental analysis was applied to the individual plasma patidegib and IPI-230 concentration data for males and females. The following parameters were estimated: Cmax—Maximum observed concentration; Tmax—Time of maximum observed concentration; AUCTlast—Area under the concentration-time curve from hour 0 to the last measurable concentration, estimated by the linear trapezoidal rule; AUC0-24—Area under the concentration-time curve from hour 0 to hour 24, estimated by the linear trapezoidal rule; DN AUC0-24—Dose normalized AUC0-24, calculated as AUC0-24/dose level; DN Cmax—Dose normalized Cmax, calculated as Cmax/dose level.

Data set [4] concerns cellular hedgehog pathway. The settings on record: Tremblay et al., J. Med. Chem. 2009; read-out: half maximal effective concentration for inhibition of cellular hedgehog pathway; cited from earlier work.
The mark [5] stands for this setting: minimum of 24 hours stirring at 25° C.
[6] abbreviates: both sexes, 40 mg/kg/day, Day 90, Group 3, 40 mg/kg/day dermal twice daily, sexes combined MF.
Setting [7] is: both sexes, 80 mg/kg/day, Day 1, Group 4, 80 mg/kg/day dermal twice daily, sexes combined MF.
Where [8] appears, read: both sexes, 80 mg/kg/day, Day 14, Group 4, 80 mg/kg/day dermal twice daily, sexes combined MF.
Where [9] appears, read: both sexes, 80 mg/kg/day, Day 90, Group 4, 80 mg/kg/day dermal twice daily, sexes combined MF.
The mark [10] stands for this setting: female, 40 mg/kg/day, Day 1, Group 3, 40 mg/kg/day dermal twice daily, sex F.
Where [11] appears, read: female, 40 mg/kg/day, Day 90, Group 3, 40 mg/kg/day dermal twice daily, sex F.
Where [12] appears, read: female, 80 mg/kg/day, Day 1, Group 4, 80 mg/kg/day dermal twice daily, sex F.
Where [13] appears, read: female, 80 mg/kg/day, Day 14, Group 4, 80 mg/kg/day dermal twice daily, sex F.
Where [14] appears, read: female, 80 mg/kg/day, Day 90, Group 4, 80 mg/kg/day dermal twice daily, sex F.
Where [15] appears, read: male, 40 mg/kg/day, Day 90, Group 3, 40 mg/kg/day dermal twice daily, sex M.
[16] abbreviates: male, 80 mg/kg/day, Day 1, Group 4, 80 mg/kg/day dermal twice daily, sex M.
The mark [17] stands for this setting: male, 80 mg/kg/day, Day 14, Group 4, 80 mg/kg/day dermal twice daily, sex M.
Setting [18] is: male, 80 mg/kg/day, Day 90, Group 4, 80 mg/kg/day dermal twice daily, sex M.

The structures appear in SMILES notation. Like-named read-outs stand apart in the source and are kept apart here.

For `CCC(C)n1ncn(-c2ccc(N3CCN(c4ccc(OCC5COC(Cn6cncn6)(c6ccc(Cl)cc6Cl)O5)cc4)CC3)cc2)c1=O` [itraconazole, (2R,4S)-rel-1-(butan-2-yl)-4-{4-[4-(4-(4-{[(2R,4S)-2-(2,4-dichlorophenyl)-2-(1H-1,2,4-triazol-1-ylmethyl)-1,3-dioxolan-4-yl]methoxy}phenyl)piperazin-1-yl]phenyl}-4,5-dihydro-1H-1,2,4-triazol-5-one], in data set [1], the IC50 was 0.8 µM. Besides, in data set [2], the “solubility of itraconazole in water” value is recorded as “highly insoluble”. Further, in data set [2] (setting [5]), the “saturated solubility of itraconazole in N-methyl pyrrolidone” value was 7.65 % w/w, the “solubility of itraconazole in benzyl alcohol” value is 14.97 % w/w, the “solubility of itraconazole in castor oil” value is listed as 0.01-0.05 % w/w and the “solubility of itraconazole in diisopropyl adipate” value was 0.01-0.05 % w/w. In data set [2] (setting [5]), the “solubility of itraconazole in dimethicone 350 CST” value is recorded as 0.01-0.05 % w/w, the “solubility of itraconazole in dimethyl isosorbide” value is 2.32 % w/w, the “solubility of itraconazole in ethanol” value is reported as 0.01-0.05 % w/w and the “solubility of itraconazole in phenoxyethanol” value turned out to be 7.87 % w/w. Moreover, the “solubility of itraconazole in the remaining solvents investigated (not shown)” value in data set [2] (setting [5]) is listed as 0.01-0.20 % w/w.

On to `CC1=C2C[C@H]3[C@@H](CC[C@@H]4C[C@H](NS(C)(=O)=O)CC[C@@]43C)[C@@H]2CC[C@@]2(C1)O[C@@H]1C[C@H](C)CN[C@H]1[C@H]2C` [patidegib], for which the “dose proportionality of increases in mean Cmax and AUC0-24” value in data set [3] (40 to 80 mg/kg/day, Day 90) is reported as “generally greater than dose proportional”. The Cmax stood at 0.0219 µg/mL in data set [3] (setting [6]); 0.00393 µg/mL in data set [3] (setting [7]); 0.249 µg/mL in data set [3] (setting [8]); 0.0758 µg/mL in data set [3] (setting [9]); 0.00465 µg/mL in data set [3] (setting [10]); 0.035 µg/mL in data set [3] (setting [11]). The Cmax in data set [3] (setting [12]) is 0.00403 µg/mL; in data set [3] (setting [13]), 0.41 µg/mL; in data set [3] (setting [14]), 0.141 µg/mL; in data set [3] (setting [15]) it was 0.00868 µg/mL; in data set [3] (setting [16]) it was 0.00384 µg/mL; in data set [3] (setting [17]) it was 0.0887 µg/mL. In data set [3] (setting [18]), the Cmax worked out at 0.0214 µg/mL. Besides, the AUC(0-t) in data set [3] (setting [6]) was 0.329 µg·h/mL; in data set [3] (setting [7]), 0.0371 µg·h/mL; in data set [3] (setting [8]) it was 4.11 µg·h/mL; in data set [3] (setting [9]), 1.24 µg·h/mL; in data set [3] (setting [10]), 0.0567 µg·h/mL; in data set [3] (setting [11]), 0.526 µg·h/mL. Moreover, the AUC(0-t) in data set [3] (setting [12]) was 0.0363 µg·h/mL; in data set [3] (setting [13]), 6.82 µg·h/mL; in data set [3] (setting [14]), 2.31 µg·h/mL; in data set [3] (setting [15]), 0.132 µg·h/mL; in data set [3] (setting [16]), 0.0377 µg·h/mL; in data set [3] (setting [17]), 1.39 µg·h/mL. Besides, the AUC(0-t) in data set [3] (setting [18]) stood at 0.352 µg·h/mL. For the same compound, the Tmax in data set [3] (both sexes, post the first or second dose on Day 1) was in the range of 2 to 8 h; in data set [3] (both sexes, post the first or second dose on Days 14 and 90), 2 to 6 h. In data set [4], the EC50 is 0.007 µM.
